Results reported in ChEMBL document CHEMBL3621163, “Phenothiazine-based CaaX competitive inhibitors of human farnesyltransferase bearing a cysteine, methionine, serine or valine moiety as a new family of antitumoral compounds” (Bioorg Med Chem Lett, 2015).

Legend:
Format in all cases: protein-complex assay
[1] = molecular target: T1, Protein farnesyltransferase (Homo sapiens, UniProt P49354+P49356); test: Inhibition of recombinant human FTase using FPP/dansyl-GCVLS as substrate at 100 uM measured for 15 mins by fluorimetric analysis relative to control
[2] = molecular target: T1, Protein farnesyltransferase; test: Inhibition of recombinant human FTase using FPP/dansyl-GCVLS as substrate measured for 15 mins by fluorimetric analysis
[3] = molecular target: T1, Protein farnesyltransferase; test: Inhibition of human FTase

COC(=O)[C@@H](NC(=O)CCN1c2ccccc2Sc2ccccc21)C(C)C
inhibition [1]: 52%

O=C(CCn1c2ccccc2c2ccccc21)N[C@@H](CO)C(=O)O
inhibition [1]: 33%

COC(=O)[C@H](CO)NC(=O)CCN1c2ccccc2Sc2ccccc21
inhibition [1]: 63%

O=C(CCN1c2ccccc2Sc2ccccc21)N[C@@H](CO)C(=O)O
IC50 [2]: 12 µM | inhibition [1]: 94%

O=C(CCN1c2ccccc2Sc2ccccc21)N[C@@H](CS)C(=O)O
IC50 [2]: 4.7 µM | inhibition [1]: 92%

CCOC(=O)[C@H](CS)NC(=O)CCN1c2ccccc2Sc2ccccc21
inhibition [1]: 10%

O=C(CCn1c2ccccc2c2ccccc21)N[C@@H](CS)C(=O)O
IC50 [2]: 65.4 µM | inhibition [1]: 67%

CSCC[C@H](NC(=O)CCN1c2ccccc2Sc2ccc(Cl)cc21)C(=O)O
IC50 [2]: 18.9 µM | inhibition [1]: 96%

COC(=O)[C@@H](NC(=O)CCn1c2ccccc2c2ccccc21)C(C)C
inhibition [1]: 12%

COC(=O)[C@H](CCSC)NC(=O)CCN1c2ccccc2Sc2ccccc21
inhibition [1]: 5%

COC(=O)[C@H](CCSC)NC(=O)CCN1c2ccccc2Sc2ccc(Cl)cc21
inhibition [1]: 0%

CCOC(=O)[C@H](CSSC[C@H](NC(=O)CCN1c2ccccc2Sc2ccccc21)C(=O)OCC)NC(=O)CCN1c2ccccc2Sc2ccccc21
inhibition [1]: 0%

CC(C)[C@H](NC(=O)CCN1c2ccccc2Sc2ccccc21)C(=O)O
IC50 [2]: 44.7 µM | inhibition [1]: 76%

CC(C)[C@H](NC(=O)CCn1c2ccccc2c2ccccc21)C(=O)O
inhibition [1]: 22%

CSCC[C@H](NC(=O)CCn1c2ccccc2c2ccccc21)C(=O)O
IC50 [2]: 40.2 µM | inhibition [1]: 73%

CCOC(=O)[C@H](CS)NC(=O)CCn1c2ccccc2c2ccccc21
inhibition [1]: 15%

COC(=O)[C@H](CO)NC(=O)CCn1c2ccccc2c2ccccc21
inhibition [1]: 23%

CSCC[C@H](NC(=O)CCN1c2ccccc2Sc2ccccc21)C(=O)O
IC50 [2]: 11.7 µM | inhibition [1]: 92%

COC(=O)[C@H](CCSC)NC(=O)CCn1c2ccccc2c2ccccc21
inhibition [1]: 51%

O=C(CCn1c2ccccc2c2ccccc21)OCCS
IC50 [3]: 35 µM
